# Measurements from US20070043034A1, “Chlorine Ion Uptake Modulators and Uses Thereof” (priority 2005, published 2007).
# Columns and labels:
# [1] = biological target: T1, NKCCl (Rattus norvegicus, UniProt E9PTX9); test: Reversal potential of stimulus-evoked GABAA-PSCs in immature CA3 pyramidal cells; assay type: cell-based
# T1 construct: gramicidin perforated patch clamped CA1 pyramidal neuron in an acute hippocampal slice from a P5 rat; from tissue; host or cells: acute hippocampal slices of P3-P6 male Sprague-Dawley rats; CA1 pyramidal neurons
# T1 sequence (E9PTX9 1-1203): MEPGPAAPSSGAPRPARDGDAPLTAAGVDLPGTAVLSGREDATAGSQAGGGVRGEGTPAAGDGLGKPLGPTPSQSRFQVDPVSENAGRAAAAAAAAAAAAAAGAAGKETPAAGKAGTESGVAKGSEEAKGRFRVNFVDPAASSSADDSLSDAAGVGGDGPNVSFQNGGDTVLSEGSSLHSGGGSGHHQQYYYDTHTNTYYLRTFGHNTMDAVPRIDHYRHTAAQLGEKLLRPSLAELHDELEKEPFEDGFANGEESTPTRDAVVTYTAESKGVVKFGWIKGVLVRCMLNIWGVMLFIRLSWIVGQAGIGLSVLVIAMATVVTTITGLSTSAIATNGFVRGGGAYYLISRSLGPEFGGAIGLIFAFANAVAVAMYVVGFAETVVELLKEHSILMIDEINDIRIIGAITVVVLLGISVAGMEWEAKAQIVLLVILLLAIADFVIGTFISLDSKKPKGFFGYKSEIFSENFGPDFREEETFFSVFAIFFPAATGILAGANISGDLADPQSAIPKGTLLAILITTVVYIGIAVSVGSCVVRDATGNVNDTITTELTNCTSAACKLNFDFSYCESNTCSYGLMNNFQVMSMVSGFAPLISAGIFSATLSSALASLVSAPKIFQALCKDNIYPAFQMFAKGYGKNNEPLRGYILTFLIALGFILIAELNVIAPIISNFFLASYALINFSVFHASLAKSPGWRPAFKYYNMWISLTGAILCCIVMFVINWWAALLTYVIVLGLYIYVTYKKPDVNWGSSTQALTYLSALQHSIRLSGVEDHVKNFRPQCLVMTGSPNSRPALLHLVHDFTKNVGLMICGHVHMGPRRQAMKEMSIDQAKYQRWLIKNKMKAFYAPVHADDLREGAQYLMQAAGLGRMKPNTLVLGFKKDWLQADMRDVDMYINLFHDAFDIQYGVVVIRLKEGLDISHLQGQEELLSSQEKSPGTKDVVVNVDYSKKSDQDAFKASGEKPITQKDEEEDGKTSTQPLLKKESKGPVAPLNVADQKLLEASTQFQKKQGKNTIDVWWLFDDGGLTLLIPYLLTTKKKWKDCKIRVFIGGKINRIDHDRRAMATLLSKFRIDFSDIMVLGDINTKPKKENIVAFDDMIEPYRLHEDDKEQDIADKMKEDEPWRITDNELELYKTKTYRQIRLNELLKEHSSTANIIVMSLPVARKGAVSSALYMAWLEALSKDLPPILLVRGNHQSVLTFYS
# Experimental: Cell cultures, such as pyramidal cells, can be used to examine the effects of a pharmaceutical composition of the present invention on GABAA receptor activation. In one exemplary method, selective inhibition of NKCCl by a pharmaceutical composition of the present invention, bumetanide, was tested to examine the relationship between chloride accumulation in neurons, GABAA receptor activation and NKCC1. Specifically, the reversal potential of electrical stimulus evoked GABAA-receptor mediated post-synaptic currents (GABAA-PSCS) in immature P4-P6 CA3 pyramidal cells of the hippocampus was examined in the presence or absence of bumetanide. Electrical stimulation of the stratum radiatum (7 V, 30 us duration) evoked in control conditions a synaptic response that reversed at −42.4±1.7 mV (n=6) and was close to the reversal potential of spontaneous GABAA-PSCS (−46.1±0.7 mV; n=6, p=0.07). Examples of stimulus evoked postsynaptic currents at different holding potentials for individual pyramidal cell and corresponded current-voltage (I-V) relationship are shown in FIG. 1A. […] In presence of bumetanide, stimulus evoked GABAA-PSCs reversed at −46.1±1.9 mV (n=6, p=0.17). […] This in vitro system can be used to test any of the pharmaceutical compositions of the present invention for modulation of GABAA receptor activation. […]
# [2] = biological target: T1, NKCCl; test: Whole-cell voltage clamp, reversal potential of currents elicited by local GABA application (Egaba) in CA1 pyramidal cells; assay type: cell-based; details: in the presence of bumetanide, n=6 cells from 8, p=0.005, control −37±2.72 mV
# Text: In one example, direct effect of bumetanide on Egaba (excitatory GABAA) can be tested. Here, whole-cell voltage clamp recordings to measure the reversal potential of currents elicited by local application of GABA (10 pM, 10 ms pulse duration) in CA1 pyramidal cells were used.
# In one example, electrophysiological recordings are gathered from individual slices and subsequently transferred to a conventional submerged-type chamber and continuously superfused with, for example, oxygenated aCSF. Whole-cell recordings were generated. Patch electrodes were used, made by known methods. For whole-cell recording in voltage-clamp mode pipettes were filled with a buffered solution.
smiles,measurement,setting,value
"CCCCNc1cc(C(=O)O)cc(S(N)(=O)=O)c1Oc1ccccc1 [bumetanide, 3-(aminosulfonyl)-5-(butylamino)-4-phenoxybenzoic acid]",shift in reversal potential of GABAA-PSCs,[1]; bumetanide 10 μM application,negative shift
same,reversal potential of stimulus evoked GABAA-PSCs,"[1]; bumetanide 10 μM, P4-P6 CA3 pyramidal cells, n=6, p=0.17, control −42.4±1.7 mV",−46.1±1.9 mV
same,Egaba (reversal potential of currents elicited by local application of GABA),[2],−40.35+2.73 mV
